Measured values reported in US20140314791A1, “METHODS OF TREATING CANCER” (DANA-FARBER CANCER INSTITUTE, INC., priority 2012, published 2014).
Where two headings read alike, the source gives them in different places.

Legend:
Lkb1-null cells = test: Array-based viral infection and cell proliferation assay (validation), Lkb1-null; design: species or system mouse; conditions: for Growth of Lkb1-wt/Lkb1-null in array-based validation: Table 6; for Null ave-GR: validation, 5 days post infection, alamarBlue
Procedure: (§1) (C) Validation study. Relative viability of Lkb1-wt and Lkb1-null cells infected with 340 individual hairpins for 5 days. Genes of interest are highlighted by the colors indicated.
(§2) For array-based viral infection and assessment of proliferation, 2.5 μl virus was mixed with 250 cells in 100 μl medium containing 8 μg/ml polybrene per well in 96-well plates. The plates were spun at 2250 rpm/37° C. for 30 min. Immediately after spinning, supernatants were gently aspirated off and 100 μl fresh medium was added to each well of the 96-well plates. After 2 days incubation, medium was gently aspirated off and 100 fresh medium containing 3 μg/ml puromycin was added to each well of the 96-well plates. The plates were back to culture for additional 3 days and then the viable cells were monitored by alamarBlue (Invitrogen) assay according to manufacturer's instructions.
(§3) To identify Lkb1-null-selective essential genes, a synthetic lethal screen was performed using a pooled 40K murine shRNA lentiviral library for each of the Lkb1-wt and Lkb1-null cell lines described above. Relative abundance of shRNAs in each cell line sample was determined by deep-sequencing analysis, and for every shRNA, a log 2 Fold Change (log 2FC) value was calculated from the difference in relative abundance at a late time point after infection versus the initial shRNA-infected sample. An unsupervised hierarchical clustering analysis of the ranked hairpins from the triplicate pooled shRNA library screens of Lkb1-wt and Lkb1-null mouse cancer cells is shown in FIG. 1A. […] The ranked hairpins were collapsed by using two methods, a RIGER analysis (KS t-test based statistics) and a weighted second best analysis to rank genes that selectively impaired proliferation/viability in Lkb1-null cells. A union of 344 genes, identified by the top 100 individual hairpins for 88 genes (Table 1) and the top 200 genes from both the KS (Table 2) and weighted second best (Table 3), was nominated as the initial prioritized list (FIG. 1B). 340 shRNAs, targeting 70 candidate genes from this prioritized list, were chosen for validation (Table 4). The 70 genes consisted of the top 10 candidates from the KS analysis, as well as 60 others involved in a range of biological processes in an attempt to represent all biological categories in the validation process. Validation was performed in an array format with an assay of relatively short duration (5 days post infection) compared to the primary pooled screen (28 days), which should be a more stringent selection, as it required the anti-proliferative effects to manifest in a short time period. […] Dtymk, Check1, and Pdhb are the top 3 candidate genes, each with 3 hairpins that scored in the validation assay (FIG. 1C).

Chek1 = conditions: Lkb1-wt 634 cells, normalized to shGFP
Lkb1-wt cells = test: Array-based viral infection and cell proliferation assay (validation), Lkb1-wt; design: species or system mouse; conditions: 5 days post infection, alamarBlue
Procedure: as §1, §2, §3

[1] = test system: Lkb1-null versus Lkb1-wt cell lines; test: Large-scale pooled shRNA library screening (murine 40K pool); assay type: cell-based, mouse; conditions: for Hairpin-rank in pooled shRNA screen: Table 6; for # Hairpins 1000: number of the gene's hairpins ranked within 1000; for # Hairpins 5000: number of the gene's hairpins ranked within 5000; for # Hairpins 10000: number of the gene's hairpins ranked within 10000
γH2AX = test: Western blot analysis of γH2AX after CHEK1 inhibitor treatment; assay type: cell-based; conditions: 3 h at the GI50 concentration
[2] = test system: Lkb1-wt (634, 855, and 857) cells; test: Cell proliferation assay with CHEK1 inhibitors (CCK-8), Lkb1-wt; assay type: cell-based, mouse; conditions: read-out: 50% growth inhibition (GI50) concentration
[3] = test system: Lkb1-null (t2, t4, and t5) cells; test: Cell proliferation assay with CHEK1 inhibitors (CCK-8), Lkb1-null; assay type: cell-based, mouse; conditions: for GI50: read-out: 50% growth inhibition (GI50) concentration
[4] = test system: Lkb1-wt (634, 855, and 857) and Lkb1-null (t2, t4, and t5) cells; test: Proliferation assay of shRNA-transduced cells (CellTiter-Glo); assay type: cell-based, mouse; conditions: in vitro, puromycin 3 μg/ml
Procedure: Viable cells were measured daily using Promega's CellTiter-Glo Assay. Two independent sets of transductions into the 6 cell lines were shown: the first set used shGFP, shDtymk-1, and shChek1-4 (upper panels), and the second set used shGFP, shDtymk-3, and shChek1-1 (lower panels).
Lentiviral production and target cell transduction were performed according to previously description (Moffat et al., 2006). Briefly, 293T cells were co-transfected with pLenti-vector, pCMV-dR8.74psPAX2, and pMD2.G using TransIT-LT1 transfection reagent (Mirus). Thirty-six h after transfection, the supernatant was harvested and spun at 3000 rpm/4° C. for 10 min, and then incubated with target cells in the presence of 8 μg/ml polybrene (Sigma) for 24 h. Two days after infection, the cells were collected for further analysis as indicated in the presence of 3 μg/ml Puromycin (Invitrogen).
Cells were plated into 96-well plates at 2000 cells per well in 100 μl, with addition of puromycin at 3 μg/ml for shRNA lentivirus infected cells, or with addition of variable doses of drug for drug treatment effects. Viable cells were measured daily or for a period of up to 3 days either by CellTiter-Glo Luminescent Cell Viability Assay (Promega) or by Cell Counting Kit-8 (CCK-8) (Dojindo) according to the manufacturer's instructions. All proliferation assays were performed in triplicate wells.
Depletion of DTYMK and CHEK1 was confirmed by Western blot (FIG. 11B).

[5] = test system: Lkb1-wt (634 and 857) and Lkb1-null (t2 and t4) tumors; test: Tumor development of shRNA-transduced cells implanted into athymic nude mice; assay type: in vivo; conditions: doxycycline treatment for 3 weeks
Procedure: (C) 1×10^6 Lkb1-wt (634 and 857) and Lkb1-null (t2 and t4) cells transduced with the indicated shRNA were implanted into athymic nude mice for 3 weeks. Tumor volume (mm^3) was calculated as […]. The data represent mean±SD for 4 mice. Lkb1-wt 634 and Lkb1-null t4 tumors with the indicated shRNAs were shown (D).
To investigate whether reduced expression of Dtymk or Chek1 inhibited tumor development in vivo, Lkb1-wt (634 and 857) and Lkb1-null (t2 and t4) cells transduced with pTetOn-shGFP, pTetOn-shDtymk-3, or pTetOn-shChek1-4 were implanted into athymic nude mice.

Dtymk = test: QPCR analysis of Dtymk knockdown in Lkb1-wt 634 cells; conditions: normalized to shGFP
[6] = test system: Lkb1-wt and Lkb1-null cells; test: 3H-dTTP incorporation into genomic DNA; assay type: cell-based, mouse; conditions: 0.25 μCi 3H-dTTP, 6 h
Procedure: Lkb1-wt and Lkb1-null cells were plated into 96 well plates with 4000 cells/well in 100 μL medium for overnight culturing then incubated with 0.25 μCi ^3H-dTTP (Perkin Elmer, NET221H250UC) for 6 h and used 0.25 μCi ^3H-deoxythymidine (Perkin Elmer, NET221H250UC) as positive and 0.25 μCi^3H-dTTP/non-cells (medium alone) as negative controls. Cells were washed with PBS, trypsinized, and DNA was captured with a cell harvester on glass fiber filters Filtermat A (Perkin Elmer, #1450-421), which was then placed into a liquid scintillation counting container for counting on a scintillation beta-counter. The data represent mean±SD for 6 replicates.
(§4) Next it was determined whether adding dTTP to the media could rescue cell death after Dtymk knockdown. Three Lkb1-null cell lines were transduced with shGFP or shDtymk-1 and then selectively cultured in puromycin medium in the presence or absence of 150 μM dTTP for 3 days (Taricani et al., 2010). […] Expression of DTYMK in the shDtymk-1 cells was not determined because the remaining cells were too few for RNA and protein extraction (FIG. 4B).

[7] = test system: Lkb1-null t2, t4, and t5 cells; test: dTTP rescue of shDtymk growth phenotype; assay type: cell-based, mouse; conditions: 150 μM dTTP
Procedure: (B) Morphology of Lkb1-null t2, t4, and t5 cells transduced with shGFP or shDtymk-1 and then cultured with or without additional 150 μM dTTP in medium for 3 days.
as §4

[8] = gene-level KS score over all hairpins of the gene (Table 2, Top 200 genes by KS), only the first hairpin id is printed
[9] = rank of the gene by NES, KS analysis

| Compound | Growth of Lkb1-wt/Lkb1-null in array-based validation (Lkb1-null cells) | Null ave-GR (Lkb1-null cells) | mRNA remaining (by qPCR) (Chek1) [%] | WT ave-GR (Lkb1-wt cells) | Hairpin-rank in pooled shRNA screen [1] | mRNA remaining (by qPCR) (Dtymk) [%] | further results |
| --- | --- | --- | --- | --- | --- | --- | --- |
| shChek1-2: shRNA hairpin GCCACGAGAATGTAGTGAAAT targeting Mouse Chek1 | 1.26 | 0.85 | 43.90 | 1.07 | 14869 | – | – |
| O=c1[nH]c2ccc(Cl)cc2c(N[C@@H]2CN3CCC2CC3)c1-c1nc2ccccc2[nH]1 [CHIR124] | – | – | – | – | – | – | phosphorylation of H2AX (Western blot) (γH2AX): induced phosphorylation of H2AX; GI50 ([2]; Lkb1-wt cells, mean, 3 days): 0.056 µM; inhibition of Lkb1-null cells stronger than Lkb1-wt cells ([3]; GI50 Lkb1-wt versus Lkb1-null): 3 fold; GI50 ([3]; Lkb1-null cells, mean, 3 days): 0.019 µM |
| shChek1-3: shRNA hairpin CCCATGTAGTAGTATCACTTT targeting Mouse Chek1 | 1.64 | 0.27 | 42.10 | 0.45 | 23815 | – | NES [1, 8]: 1.57; NES ([1]; gene-level normalized enrichment score over all hairpins of the gene): 1.520; Gene rank ([1]; gene-level rank by NES): 119; # Hairpins 500 ([1]; number of the gene's hairpins ranked within 500): 1; # Hairpins 1000 [1]: 1; # Hairpins 5000 [1]: 1; # Hairpins 10000 [1]: 1; # HP 500 ([1]; number of the gene's hairpins ranked within top 500): 1; # HP 1000 ([1]; number of the gene's hairpins ranked within top 1000): 1; # HP 5000 ([1]; number of the gene's hairpins ranked within top 5000): 1; # HP 10000 ([1]; number of the gene's hairpins ranked within top 10000): 1; Gene rank [1, 9]: 61 |
| shChek1-4: shRNA hairpin GTGGAAGAAGAGTTGTATGAA targeting Mouse Chek1 | 2.31 | 0.30 | 30.20 | 0.70 | 26693 | – | cell growth compared to shGFP control, Lkb1-null versus Lkb1-wt [4]: inhibited Lkb1-null cell growth more strongly than the growth of Lkb1-wt cells; tumor growth of Lkb1-null tumors expressing shRNA versus shGFP and Lkb1-wt tumors [5]: grew significantly slower |
| shDtymk-3: shRNA hairpin ACGGAACTAGAGGATCACTCT targeting Mouse Dtymk | 2.96 | 0.28 | – | 0.83 | 100 | 27.80 | cell growth compared to shGFP control, Lkb1-null versus Lkb1-wt [4]: inhibition was stronger in Lkb1-null cells; tumor growth of Lkb1-null tumors expressing shRNA versus shGFP and Lkb1-wt tumors [5]: grew significantly slower; Hairpin rank ([1]; Top 100 shRNAs, ranked hairpin list of selectively essential hairpins in Lkb1-null background (log2FC)): 98 |
| shDtymk-5: shRNA hairpin CAAGACCACGCAGGCCCTCAA targeting Mouse Dtymk (also Human DTYMK) | 1.05 | 1.06 | – | 1.11 | 5760 | 77.90 | NES [1, 8]: 1.53; # Hairpins 1000 [1]: 1; # Hairpins 5000 [1]: 1; # Hairpins 10000 [1]: 2; Gene rank [1, 9]: 103 |
| shChek1-5: shRNA hairpin GCAACGGTATTTCGGCATAAT targeting Mouse Chek1 | 1.2 | 0.96 | 40.70 | 1.15 | 23858 | – | – |
| shDtymk-4: shRNA hairpin GAAATCGGCAAGCTTCTGAAT targeting Mouse Dtymk (also Human DTYMK) | 1.67 | 0.51 | – | 0.85 | 28546 | 51.10 | – |
| shDtymk-2: shRNA hairpin CTTCTCTGCAAACCGCTGGGA targeting Mouse Dtymk | 1.18 | 1.03 | – | 1.21 | 19621 | 66.70 | – |
| AZD7762 | – | – | – | – | – | – | GI50 [2]: 0.275 µM; inhibition of Lkb1-null cells stronger than Lkb1-wt cells [3]: 3 fold; GI50 [3]: 0.09 µM |
| shChek1-1: shRNA hairpin GCTGTGAATAGAATAACTGAA targeting Mouse Chek1 | 2.14 | 0.73 | 35.50 | 1.57 | 327 | – | cell growth compared to shGFP control, Lkb1-null versus Lkb1-wt [4]: inhibited Lkb1-null cell growth more strongly than the growth of Lkb1-wt cells |
| Cc1cn([C@H]2C[C@H](O)[C@@H](COP(=O)(O)OP(=O)(O)OP(=O)(O)O)O2)c(=O)[nH]c1=O [dTTP] | – | – | – | – | – | – | passage of radiolabeled dTTP through the cell membrane (incorporation into genomic DNA) [6]: passed through the cell membrane; toxicity of dTTP to shGFP-transduced cells [7]: not to be toxic; growth of shDtymk-transduced Lkb1-null cells with exogenous dTTP ([7]; 3 days): grew as well as shGFP-transduced cells |
